Laboratory results reported in paper PMC3917282, “Alkaloids from the Mangrove-Derived Actinomycete Jishengella endophytica 161111” (Marine Drugs, 2014).
Converted amounts (≈) assume the structure as drawn. Like-named read-outs stand apart in the source and are kept apart here.

Key:
[1] = test system: influenza virus (A/Puerto Rico/8/34 (H1N1), PR/8); test: organism not typed; type: cell-based; conditions: for IC50: read-out: IC50 against H1N1 (CPE inhibition); for selectivity index (SI): H1N1 IC50 and MDCK CC50
in vitro = conditions: dog
[2] = MDCK cells infected with A/Puerto Rico/8/34 (H1N1), 48 h post-infection, crystal violet staining

OC[C@H](O)[C@@H](O)Cc1cncc(-c2ccco2)n1 [Compound 1, 2-(furan-2-yl)-6-(2S,3S,4-trihydroxybutyl)pyrazine]
IC50 [1, 2]: > 50 µg/mL

OC[C@H](O)[C@@H](O)Cc1cnc(-c2ccco2)cn1 [Compound 2, 2-(furan-2-yl)-5-(2S,3S,4-trihydroxybutyl)pyrazine]
IC50 [1, 2]: > 50 µg/mL

CC(C)C[C@H]1C(=O)OCc2ccc(C=O)n21 [Compound 3, (S)-4-isobutyl-3-oxo-3,4-dihydro-1H-pyrrolo[2,1-c][1,4]oxazine-6-carbaldehyde]
IC50 [1, 2]: > 50 µg/mL

CC(C)[C@H]1C(=O)OCc2ccc(C=O)n21 [Compound 4, (S)-4-isopropyl-3-oxo-3,4-dihydro-1H-pyrrolo[2,1-c][1,4]oxazine-6-carbaldehyde]
IC50 [1, 2]: > 50 µg/mL

O=Cc1ccc2n1[C@@H](Cc1ccccc1)C(=O)OC2 [Compound 6, (S)-4-benzyl-3-oxo-3,4-dihydro-1H-pyrrolo[2,1-c][1,4]oxazine-6-carbaldehyde]
IC50 [1, 2]: > 50 µg/mL

O=C(O)c1cc2c([nH]c3ccccc32)c(-c2ccc(CO)o2)n1 [Compound 7, flazin]
IC50 [1, 2]: > 50 µg/mL

OCc1ccc(-c2nccc3c2[nH]c2ccccc23)o1 [Compound 8, perlolyrine]
CC50 at 36 h (in vitro): 116 ± 12.1 µg/mL (≈ 440 µM) | selectivity index (SI) [1]: 3.0 | IC50 [1, 2]: 38.3 µg/mL (≈ 145 µM)

Oc1nccc2c1[nH]c1ccccc12 [Compound 9, 1-hydroxy-β-carboline]
CC50 at 36 h (in vitro): 403 ± 31.4 µg/mL (≈ 2190 µM) | selectivity index (SI) [1]: 16.1 | IC50 [1, 2]: 25 µg/mL (≈ 136 µM)

Cc1cc2nc3[nH]c(=O)[nH]c(=O)c3nc2cc1C [Compound 10, lumichrome]
IC50 ([1]; MDCK, 48 h): 39.7 µg/mL (≈ 164 µM)

O=Cc1c[nH]c2ccccc12 [Compound 11, 1H-indole-3-carboxaldehyde]
CC50 at 36 h (in vitro): 522 ± 24.5 µg/mL (≈ 3600 µM) | selectivity index (SI) [1]: 11.4 | IC50 [1, 2]: 45.9 µg/mL (≈ 316 µM)

O=C(CO)c1c[nH]c2ccccc12 [Compound 12, 2-hydroxy-1-(1H-indol-3-yl)ethanone]
IC50 [1, 2]: > 50 µg/mL

COCc1ccc(C=O)[nH]1 [Compound 13, 5-(methoxymethyl)-1H-pyrrole-2-carbaldehyde]
IC50 [1, 2]: > 50 µg/mL

NC(=O)c1ncn([C@@H]2O[C@H](CO)[C@@H](O)[C@H]2O)n1 [Ribavirin, ribavirin, reference compound]
CC50 at 36 h (in vitro): 744 ± 18.5 µg/mL (≈ 3050 µM) | selectivity index (SI) [1]: 32.2 | IC50 [1, 2]: 23.1 µg/mL (≈ 94.6 µM)

(4S)-4-(2-methylbutyl)-3-oxo-3,4-dihydro-1H-pyrrolo[2,1-c][1,4]oxazine-6-carbaldehyde [Compound 5]
IC50 against H1N1 (CPE inhibition) [1, 2]: > 50 µg/mL
